In patent publication US9446127B2, “Compositions including androgen receptor degradation (ARD) enhancers and methods of prophylactic or therapeutic treatment of skin disorders and hair loss” (AndroScience Corporation, priority 2007, dated 2016):

Target: T1, wild type androgen receptor (GFPAR) (Homo sapiens, UniProt P10275)
T1 construct: GFP (green fluorescent protein); expressed in transfected cells; host or cells: COS-1 (monkey kidney)
T1 sequence (P10275 1-920): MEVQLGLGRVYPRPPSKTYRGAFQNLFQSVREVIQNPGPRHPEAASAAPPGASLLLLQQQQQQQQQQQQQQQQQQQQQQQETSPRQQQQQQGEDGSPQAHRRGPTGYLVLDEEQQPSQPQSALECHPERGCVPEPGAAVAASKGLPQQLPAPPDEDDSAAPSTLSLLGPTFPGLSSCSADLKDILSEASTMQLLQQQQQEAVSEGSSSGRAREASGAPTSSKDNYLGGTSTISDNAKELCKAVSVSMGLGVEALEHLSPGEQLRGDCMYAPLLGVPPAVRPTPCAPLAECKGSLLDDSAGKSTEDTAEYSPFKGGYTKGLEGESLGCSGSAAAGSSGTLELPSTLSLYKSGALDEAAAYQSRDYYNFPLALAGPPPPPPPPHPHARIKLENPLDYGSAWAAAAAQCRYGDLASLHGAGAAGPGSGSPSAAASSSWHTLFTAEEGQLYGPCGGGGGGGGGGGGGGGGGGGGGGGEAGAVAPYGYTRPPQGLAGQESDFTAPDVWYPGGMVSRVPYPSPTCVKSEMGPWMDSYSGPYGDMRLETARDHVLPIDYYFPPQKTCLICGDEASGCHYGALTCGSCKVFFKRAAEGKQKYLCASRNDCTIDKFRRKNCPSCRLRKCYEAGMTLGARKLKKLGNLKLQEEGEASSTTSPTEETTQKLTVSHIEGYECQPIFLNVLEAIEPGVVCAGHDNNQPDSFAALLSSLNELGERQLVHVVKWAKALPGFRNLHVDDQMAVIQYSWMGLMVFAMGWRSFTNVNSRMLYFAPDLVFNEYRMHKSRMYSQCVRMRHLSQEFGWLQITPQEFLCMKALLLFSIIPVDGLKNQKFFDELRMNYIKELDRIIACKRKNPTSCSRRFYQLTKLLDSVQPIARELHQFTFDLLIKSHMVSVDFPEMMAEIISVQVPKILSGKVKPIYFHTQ
Assay: Fluorescence microscopy of COS-1 cells transfected with GFPAR
Type: cell-based
Conditions: COS-1, 5 micromolar
Method: Monkey kidney COS-1 cells were plated at a density of 3×10^4 cells per 0.5-milliliter volume onto alcohol-cleaned and sterilized cover slips placed in 35-millimeter suspension culture dishes containing Dulbecco's modified Eagle's (DME) medium containing 10% FBS. The cells were transfected with plasmids containing the wild type AR (GFPAR) or poly Q49 (plasmid GFPARQ49) mutant androgen receptor and green fluorescent protein (GFP) as a reporter. For each coverslip, 12.3 microliters SuperFect was added to 3.075 micrograms plasmid in 102.5 microliters DME medium (to give a 1:4 ratio of DNA to SuperFect reagent); the mixture was vortexed briefly, and the complex allowed to form over 15 minutes. Each mixture then received 897 microliters CD/DME and was mixed gently. The resulting 1-milliliter volumes were added to the dishes containing the coverslips (final plasmid concentration was […] per dish). Cells were allowed to incubate with the transfection solution for 5 hours, then the medium was changed to fresh 1.5 milliliters CD/DME medium with either vehicle (DMSO) only added or ASC-J9 (final concentration 5 micromolar). […] The coverslips were air-dried, mounted on slides with a glycerol-based mounting agent, and stored at 4 degrees Celsius if necessary prior to observation with fluorescence microscopy. […]

SMILES: COc1ccc(C=CC(=O)C=C(O)C=Cc2ccc(OC)c(OC)c2)cc1OC [ASC-J9, 5-hydroxy-1,7-bis(3,4-dimethoxyphenyl)-1,4,6-heptatrien-3-one]
- GFPAR fluorescence (expression of wild type AR): reduces (or degrades) the expression of AR
